target: T1, GlunN1/GluN2A glutamate receptors (Homo sapiens, UniProt Q05586+Q12879); test: cell-based; conditions: 3 μM test article; HEK293 cells expressing human GRIN1/GRIN2A; co-application with EC20 L-glutamate and 30 μM glycine; read-out: GluN2A PCA IWB Ephys % potentiation at 3 μM
T1 construct: expressed in transfected cells
Protocol: NMDA potentiation was assessed using the whole cell patch clamp of mammalian cells which expressed NMDA receptors.
Whole-Cell Patch Clamp of Mammalian Cells (Ionworks Barracuda (IWB)
The whole-cell patch-clamp technique was used to investigate the effects of compounds on GlunN1/GluN2A glutamate receptors expressed in mammalian cells.
HEK293 cells were transformed with adenovirus 5 DNA and transfected with cDNA encoding the human GRIN1/GRIN2A genes. Stable transfectants were selected using G418 and Zeocin-resistance genes incorporated into the expression plasmid and selection pressure maintained with G418 and Zeocin in the medium. Cells were cultured in Dulbecco's Modified Eagle Medium/Nutrient Mixture (D-MEM/F-12) supplemented with 10% fetal bovine serum, 100 μg/ml penicillin G sodium, 100 μg/ml streptomycin sulphate, 100 μg/ml Zeocin, 5 μg/ml blasticidin and 500 μg/ml G418.
Test article effects were evaluated in 8-point concentration-response format (4 replicate wells/concentration). All test and control solutions contained 0.3% DMSO and 0.01% Kolliphor® EL (C5135, Sigma). The test article formulations were loaded in a 384-well compound plate using an automated liquid handling system (SciClone ALH3000, Caliper LifeScienses). The measurements were perfomed using Ion Works Barracuda platform following this procedure:
Electrophysiological Procedures:
• a) Intracellular solution (mM): 50 mM CsCl, 90 mM CsF, 2 mM MgCl2, 5 mM EGTA, 10 mM HEPES. Adjust to pH 7.2 with CsOH. • b) Extracellular solution, HB-PS (composition in mM): NaCl, 137; KCl, 1.0; CaCl2, 5; HEPES, 10; Glucose, 10; pH adjusted to 7.4 with NaOH (refrigerated until use). • c) Holding potential: −70 mV, potential during agonist/PAM application: −40 mV. Recording procedure: • a) Extracellular buffer will be loaded into the PPC plate wells (11 μL per well). Cell suspension will be pipetted into the wells (9 μL per well) of the PPC planar electrode. • b) Whole-cell recording configuration will be established via patch perforation with membrane currents recorded by on-board patch clamp amplifiers. • c) Two recordings (scans) will be performed. First, during pre-application of test article alone (duration of pre-application—5 min) and second, during test articles and agonist (EC20 L-glutamate and 30 μM glycine) co-application to detect positive modulatory effects of the test article.
Test Article Administration: The first pre-application will consist of the addition of 20 μL of 2× concentrated test article solution and, second, of 20 μL of 1× concentrated test article and agonist at 10 μL/s (2 second total application time).

T1 sequence (Q12879 23-1464, other chains not shown): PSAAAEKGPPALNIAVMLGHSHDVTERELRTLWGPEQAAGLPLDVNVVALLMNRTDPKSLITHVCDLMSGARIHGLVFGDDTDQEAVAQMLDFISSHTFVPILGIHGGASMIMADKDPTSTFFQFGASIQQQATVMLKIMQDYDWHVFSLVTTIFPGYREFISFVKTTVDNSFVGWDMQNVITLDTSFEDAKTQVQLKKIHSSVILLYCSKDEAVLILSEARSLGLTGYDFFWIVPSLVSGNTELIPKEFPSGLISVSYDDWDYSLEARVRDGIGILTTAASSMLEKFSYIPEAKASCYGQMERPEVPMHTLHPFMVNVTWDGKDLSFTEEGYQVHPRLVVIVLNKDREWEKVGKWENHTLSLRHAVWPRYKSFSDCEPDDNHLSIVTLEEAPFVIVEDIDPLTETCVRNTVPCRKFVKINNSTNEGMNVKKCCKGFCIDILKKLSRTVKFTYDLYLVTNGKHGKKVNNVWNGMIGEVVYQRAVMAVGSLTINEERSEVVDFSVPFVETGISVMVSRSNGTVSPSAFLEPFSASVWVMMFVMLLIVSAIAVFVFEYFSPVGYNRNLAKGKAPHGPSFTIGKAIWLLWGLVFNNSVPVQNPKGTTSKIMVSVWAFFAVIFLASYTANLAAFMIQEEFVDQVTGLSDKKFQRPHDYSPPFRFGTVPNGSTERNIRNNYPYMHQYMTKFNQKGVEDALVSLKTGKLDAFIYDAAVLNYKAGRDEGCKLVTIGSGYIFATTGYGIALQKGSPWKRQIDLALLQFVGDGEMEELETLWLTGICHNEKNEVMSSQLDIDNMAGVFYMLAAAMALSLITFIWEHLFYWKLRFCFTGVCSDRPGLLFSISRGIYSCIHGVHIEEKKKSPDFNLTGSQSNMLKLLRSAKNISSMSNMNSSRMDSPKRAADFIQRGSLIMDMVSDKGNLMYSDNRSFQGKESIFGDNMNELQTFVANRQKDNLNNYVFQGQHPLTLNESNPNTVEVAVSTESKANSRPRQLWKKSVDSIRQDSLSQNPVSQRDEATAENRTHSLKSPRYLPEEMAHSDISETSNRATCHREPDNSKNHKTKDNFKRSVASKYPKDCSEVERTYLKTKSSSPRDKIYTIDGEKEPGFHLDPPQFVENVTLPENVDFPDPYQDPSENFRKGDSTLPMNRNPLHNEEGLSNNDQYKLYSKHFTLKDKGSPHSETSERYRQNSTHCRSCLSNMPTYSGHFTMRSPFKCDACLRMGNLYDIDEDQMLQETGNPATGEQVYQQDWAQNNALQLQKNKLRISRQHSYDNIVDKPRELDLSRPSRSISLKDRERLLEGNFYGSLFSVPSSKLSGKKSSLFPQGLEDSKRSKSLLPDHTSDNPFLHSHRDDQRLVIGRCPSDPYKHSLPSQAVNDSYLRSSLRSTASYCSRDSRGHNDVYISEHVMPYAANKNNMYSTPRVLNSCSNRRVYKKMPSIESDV

SMILES | activation at 3 µM [%]
C[C@H](CCC1(O)CCC(F)(F)CC1)[C@H]1CC[C@H]2[C@@H]3CC=C4C[C@@](C)(O)CC[C@]4(C)[C@H]3CC[C@]12C [Compound 1] | > 150
C[C@H](CCC1(O)CCCCC1)[C@H]1CC[C@H]2[C@@H]3CC=C4C[C@@](C)(O)CC[C@]4(C)[C@H]3CC[C@]12C [Compound 2] | > 150
C[C@H](CCC1(O)CCCC1)[C@H]1CC[C@H]2[C@@H]3CC=C4C[C@@](C)(O)CC[C@]4(C)[C@H]3CC[C@]12C [Compound 3] | > 150
C[C@H](CCC1(O)CCC1)[C@H]1CC[C@H]2[C@@H]3CC=C4C[C@@](C)(O)CC[C@]4(C)[C@H]3CC[C@]12C [Compound 4] | 100 to 150
C[C@H](CC[C@]1(O)CCOC1)[C@H]1CC[C@H]2[C@@H]3CC=C4C[C@@](C)(O)CC[C@]4(C)[C@H]3CC[C@]12C [Compound 5-A] | 100 to 150
C[C@H](CC[C@@]1(O)CCOC1)[C@H]1CC[C@H]2[C@@H]3CC=C4C[C@@](C)(O)CC[C@]4(C)[C@H]3CC[C@]12C [Compound 5-B] | > 150
C[C@H](CCC1(O)CCOC1)[C@H]1CC[C@H]2[C@@H]3CC=C4C[C@@](C)(O)CC[C@]4(C)[C@H]3CC[C@]12C (some centres unmarked) [Compound 5] | > 150
C[C@H](CCC1(O)CCOCC1)[C@H]1CC[C@H]2[C@@H]3CC=C4C[C@@](C)(O)CC[C@]4(C)[C@H]3CC[C@]12C [Compound 6] | 100 to 150
C[C@H](CCC1(O)CCN(C)CC1)[C@H]1CC[C@H]2[C@@H]3CC=C4C[C@@](C)(O)CC[C@]4(C)[C@H]3CC[C@]12C [Compound 8] | 10 to 100
CC(=O)N1CCC(O)(CC[C@@H](C)[C@H]2CC[C@H]3[C@@H]4CC=C5C[C@@](C)(O)CC[C@]5(C)[C@H]4CC[C@]23C)CC1 [Compound 9] | > 150
C[C@H](CCC1(O)CCCOC1)[C@H]1CC[C@H]2[C@@H]3CC=C4C[C@@](C)(O)CC[C@]4(C)[C@H]3CC[C@]12C (some centres unmarked) [Compound 11] | > 150
CC[C@]1(O)CC[C@@]2(C)C(=CC[C@H]3[C@@H]4CC[C@H]([C@H](C)CCC5(O)CCC(F)(F)CC5)[C@@]4(C)CC[C@@H]32)C1 [Compound 12] | > 150
CC[C@]1(O)CC[C@@]2(C)C(=CC[C@H]3[C@@H]4CC[C@H]([C@H](C)CCC5(O)CCC(C)(C)CC5)[C@@]4(C)CC[C@@H]32)C1 [Compound 13] | 10 to 100
CC[C@]1(O)CC[C@@]2(C)C(=CC[C@H]3[C@@H]4CC[C@H]([C@H](C)CCC5(O)CCOCC5)[C@@]4(C)CC[C@@H]32)C1 [Compound 14] | > 150
CC[C@]1(O)CC[C@@]2(C)C(=CC[C@H]3[C@@H]4CC[C@H]([C@H](C)CCC5(O)CCCOC5)[C@@]4(C)CC[C@@H]32)C1 (some centres unmarked) [Compound 15] | > 150
C[C@H](CCC1(O)CCC(F)(F)CC1)[C@H]1CC[C@H]2[C@@H]3CC[C@H]4C[C@@](C)(O)CC[C@]4(C)[C@H]3CC[C@]12C [Compound 16] | 10 to 100
C[C@H](CC[C@]1(O)CCOC1)[C@H]1CC[C@H]2[C@@H]3CC[C@H]4C[C@@](C)(O)CC[C@]4(C)[C@H]3CC[C@]12C [Compound 17] | > 150
C[C@H](CCC1(O)CCOCC1)[C@H]1CC[C@H]2[C@@H]3CC[C@H]4C[C@@](C)(O)CC[C@]4(C)[C@H]3CC[C@]12C [Compound 18] | > 150
C[C@H](CCC1(O)CCCOC1)[C@H]1CC[C@H]2[C@@H]3CC[C@H]4C[C@@](C)(O)CC[C@]4(C)[C@H]3CC[C@]12C (some centres unmarked) [Compound 19] | > 150
C[C@H](CCC1(O)CCC(C)(C)CC1)[C@H]1CC[C@H]2[C@@H]3CC[C@H]4C[C@@](C)(O)CC[C@]4(C)[C@H]3CC[C@]12C [Compound 20] | 10 to 100
CC[C@]1(O)CC[C@@]2(C)[C@@H](CC[C@@H]3[C@@H]2CC[C@]2(C)[C@@H]([C@H](C)CCC4(O)CCC(F)(F)CC4)CC[C@@H]32)C1 [Compound 21] | > 150
CC[C@]1(O)CC[C@@]2(C)[C@@H](CC[C@@H]3[C@@H]2CC[C@]2(C)[C@@H]([C@H](C)CCC4(O)CCC(C)(C)CC4)CC[C@@H]32)C1 [Compound 22] | 10 to 100
CC[C@]1(O)CC[C@@]2(C)[C@@H](CC[C@@H]3[C@@H]2CC[C@]2(C)[C@@H]([C@H](C)CCC4(O)CCOCC4)CC[C@@H]32)C1 [Compound 23] | > 150
CC[C@]1(O)CC[C@@]2(C)[C@@H](CC[C@@H]3[C@@H]2CC[C@]2(C)[C@@H]([C@H](C)CCC4(O)CCCOC4)CC[C@@H]32)C1 (some centres unmarked) [Compound 24] | > 150

same assay, conditions: HEK293, read-out: GluN2A PCA IWB Ephys % potentiation at 3 μM

SMILES | activation at 3 µM [%]
C[C@H](CCC1(O)CCNCC1)[C@H]1CC[C@H]2[C@@H]3CC=C4C[C@@](C)(O)CC[C@]4(C)[C@H]3CC[C@]12C [Compound 7] | 100 to 150
C[C@H](CCC1(O)CCC(C)(C)CC1)[C@H]1CC[C@H]2[C@@H]3CC=C4C[C@@](C)(O)CC[C@]4(C)[C@H]3CC[C@]12C [Compound 10] | 10 to 100

— US12448409B2, “Oxysterols and methods of use thereof” (priority 2016, dated 2025)
